Results published in US10626094B2 (La Jolla Institute of Allergy & Immunology, priority 2014, dated 2020).
Like-named read-outs stand apart in the source and are kept apart here.

Target: LMPTP-A (Low Molecular Weight Protein Tyrosine Phosphatase-A) enzyme (Homo sapiens (Human), UniProt P24666)
Assay: LMPTP primary screening / LMPTP (OMFP) enzyme inhibition assay, fluorescence intensity
Format: biochemical
Settings: LMPTP-A, OMFP substrate, method of Example 2
Method: This assay attempts to identify inhibitors of the LMPTP-A (Low Molecular Weight Protein Tyrosine Phosphatase-A) enzyme. It is run in 1536-well format and is measured via fluorescence intensity.
A listing of materials is provided: • Item, source, catalog no. • LMPTP-A Enzyme Stock Solution (4.22 mg/ml or 206.8 μM), SBMRI Protein Facility, • N/A • OMFP, Sigma, M2629-100MG • Bis-Tris pH 6.0, Fisher Sci, BP301-100 • Triton-X 100, Sigma, T9284 • DTT, Sigma, D9779 • Mol. Grade Water, Mediatech, Inc., 46-000-CM • 1536-well black High base opaque bottom plate, Nexus Biosystems, 00019120
Final assay conditions are: • 0.625 nM LMPTP-A Enzyme • 400 μM OMFP • 50 mM Bis-Tris pH 6.0 • 1 mM DTT • 0.01% Triton-X 100 • 20 μM test compound • 3% DMSO (2% from substrate and 1% from compounds) • 6 μL reaction volume • 50 minutes incubation at room temp
Assay Procedure • 1. Prepare Reagents as described in section F. Recipe. • 2. Using LabCyte Echo, transfer 60 nL from 2 mM test compound source plate into assay plate Col. 5-48 (final concentration of test compounds is 20 μM). 60 nL of DMSO should be transferred to col. 1-4 for positive and negative control wells. • 3. Spin plates at 1000 rpm for 1 minute in centrifuge. • 4. […] Using the Bioraptr, add 3 μL/well of enzyme solution to col. 3-48. • 6. Using the Bioraptr, add 3 μL/well of substrate solution to col. 1-48. • 7. Spin plates at 1000 rpm for 1 minute in centrifuge. • 8. Incubate plates in the dark at room temperature for 50 minutes. • 9. Read plates on PerkinElmer Viewlux using a FI protocol.

Sequence of LMPTP-A (Low Molecular Weight Protein Tyrosine Phosphatase-A) enzyme (P24666 whole entry): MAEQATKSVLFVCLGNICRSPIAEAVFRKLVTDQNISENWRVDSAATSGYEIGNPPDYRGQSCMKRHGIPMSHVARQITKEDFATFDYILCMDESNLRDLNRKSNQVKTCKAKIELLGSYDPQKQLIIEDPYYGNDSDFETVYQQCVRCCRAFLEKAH

Molecule	IC50 (read-out: IC50) [nM]	IC50 (IC50 (nM)) [nM]
NC(=O)c1ccc(-c2cc(NCCCN3CCCCC3)c3ccccc3n2)cc1F [Compound I81]	200 to 800	–
Fc1cc(F)c(-c2cc(NCCCN3CCCCC3)c3ccccc3n2)cc1F [Compound I86]	801 to 5000	–
O=S(=O)(c1ccc(-c2cc(NCCCN3CCCCC3)c3ccccc3n2)cc1)N1CCOCC1 [Compound I236]	200 to 800	–
CN(C)c1cccc(Nc2cc(-c3cccc(Cl)c3)nc3ccccc23)c1 [Compound I14, (3-{[2-(3-chlorophenyl)(4-quinolyl)]amino}phenyl)dimethylamine]	801 to 5000	–
CCN(CC)C(=O)c1ccc(-c2cc(NCCCN3CCCCC3)c3ccccc3n2)cc1 [Compound I1, N,N-diethyl-4-(4-((3-(piperidin-1-yl)propyl)amino)quinolin-2-yl)benzamide]	200 to 800	–
O=C1Cc2ccc(-c3cc(NCCCN4CCCCC4)c4ccccc4n3)cc2N1 [Compound I221]	801 to 5000	–
CN(C)Cc1cc(CO)cc(Nc2cc(-c3cccc(Cl)c3)nc3ccccc23)c1 [Compound I13, (5-[(dimethylamino)methyl]-3-{[2-(3-chlorophenyl)(4-quinolyl)]amino}phenyl)methan-1-ol]	801 to 5000	–
CSc1ccc(-c2cc(NCCCN3CCCCC3)c3ccccc3n2)c(C(F)(F)F)c1 [Compound I114]	801 to 5000	–
COc1ccc(-c2cc(NCc3cccc(OC)c3)c3ccccc3n2)cc1 [Compound G78, [2-(4-methoxyphenyl)(4-quinolyl)][(3-methoxyphenyl)methyl]amine]	801 to 5000	–
CN(C)c1cccc(-c2cc(NCCCN3CCCCC3)c3ccccc3n2)c1 [Compound I129]	801 to 5000	–
c1ccc2c(NCCCN3CCCCC3)cc(-c3ccc4[nH]ccc4c3)nc2c1 [Compound I110]	801 to 5000	–
O=C(NCC(F)(F)F)c1ccc(-c2cc(NCCCN3CCCCC3)c3ccccc3n2)cc1 [Compound I63]	801 to 5000	–
CCN1CCC(Cc2cccc(Nc3cc(-c4ccc(OC)cc4)nc4ccccc34)c2)CC1 [Compound I30, {3-[(1-ethyl(4-piperidyl))methyl]phenyl}[2-(4-methoxyphenyl)(4-quinolyl)]amine]	200 to 800	–
COc1ccc(-c2cc(Nc3ccccc3CC3CCN(C)CC3)c3ccccc3n2)cc1 [Compound I37, [2-(4-methoxyphenyl)(4-quinolyl)]{2-[(1-methyl(4-piperidyl))methyl]phenyl}amine]	> 5000	–
COc1ncccc1-c1cc(NCCCN2CCCCC2)c2ccccc2n1 [Compound I154]	801 to 5000	–
FC(F)(F)c1cc(-c2cc(Nc3cccc(CN4CCCC4)c3)c3ccccc3n2)cc(C(F)(F)F)c1 [Compound I44, {2-[3,5-bis(trifluoromethyl)phenyl](4-quinolyl)}[3-(pyrrolidinylmethyl)phenyl]amine]	> 5000	–
NC(=O)c1ccc(-c2cc(Nc3ccc(CCN4CCNCC4)cc3)c3ccccc3n2)cc1 [Compound I216, 4-(4-{[4-(2-piperazinylethyl)phenyl]amino}-2-quinolyl)benzamide]	> 5000	–
CCN(C)C(=O)c1ccc(-c2cc(NCCCN3CCCCC3)c3ccccc3n2)cc1 [Compound I266]	801 to 5000	–
COc1ccc(-c2cc(Nc3ccccn3)c3ccccc3n2)cc1 [Compound G63, [2-(4-Methoxy-phenyl)-quinolin-4-yl]-pyridin-2-yl-amine]	–	801 to 5000
COc1ccc(-c2cc(NCCc3ccc(Cl)cc3)c3ccccc3n2)cc1 [Compound G84, [2-(4-chlorophenyl)ethyl][2-(4-methoxyphenyl)(4-quinolyl)]amine]	801 to 5000	–
CC(=O)Nc1cccc(-c2cc(NCCCN3CCCCC3)c3ccccc3n2)c1 [Compound I118]	801 to 5000	–
O=C(NC1CCNCC1)c1ccc(-c2cc(NCCCN3CCCCC3)c3ccccc3n2)cc1 [Compound I196]	200 to 800	–

The next lines start with results.

IC50 (read-out: IC50) [nM]	Molecule	IC50 (IC50 (nM)) [nM]
200 to 800	COc1ccc(-c2cc(Nc3cccc(CC4CCN(C(C)=O)CC4)c3)c3ccccc3n2)cc1 [Compound I29, 1-acetyl-4-[(3-{[2-(4-methoxyphenyl)(4-quinolyl)]amino}phenyl)methyl]piperidine]	–
801 to 5000	COc1ccc(-c2cc(Nc3ccc(OC(C)C)cc3)c3ccccc3n2)cc1 [Compound G44, [2-(4-methoxyphenyl)(4-quinolyl)][4-(methylethoxy)phenyl]amine]	–
> 5000	Cn1ccc(-c2cc(NCCCN3CCCCC3)c3ccccc3n2)n1 [Compound I178]	–
200 to 800	O=C(NCCCN1CCOCC1)c1ccc(-c2cc(NCCCN3CCCCC3)c3ccccc3n2)cc1 [Compound I192]	–
801 to 5000	COc1ccc(-c2cc(NCCc3ccccc3)c3ccccc3n2)cc1 [Compound G83, [2-(4-methoxyphenyl)(4-quinolyl)](2-phenylethyl)amine]	–
> 5000	CCN1CCN(Cc2ccc(Nc3cc(-c4ccc(C(N)=O)cc4)nc4ccccc34)cc2)CC1 [Compound I215, 4-[4-({4-[(4-ethylpiperazinyl)methyl]phenyl}amino)-2-quinolyl]benzamide]	–
801 to 5000	COc1ccc(-c2cc(Nc3ccc(CC4CCN(C(C)=O)CC4)cc3)c3ccccc3n2)cc1 [Compound I34, 1-acetyl-4-[(4-{[2-(4-methoxyphenyl)(4-quinolyl)]amino}phenyl)methyl]piperidine]	–
801 to 5000	COc1ncc(-c2cc(NCCCN3CCCCC3)c3ccccc3n2)c(OC)n1 [Compound I141]	–
801 to 5000	COc1ccc(-c2cc(NCCCN3CCCCC3)c3ccccc3n2)c(OC)c1 [Compound I174]	–
801 to 5000	CS(=O)(=O)c1cccc(-c2cc(NCCCN3CCCCC3)c3ccccc3n2)c1 [Compound I146]	–
801 to 5000	COc1ccc(-c2cc(NCCCN3CCCCC3)c3ccccc3n2)cc1OC [Compound I108]	–
801 to 5000	Cc1nc2ccc(-c3cc(NCCCN4CCCCC4)c4ccccc4n3)cc2s1 [Compound I248]	–
> 5000	FC(F)(F)c1ccc(-c2cc(Nc3ccccc3CC3CCNCC3)c3ccccc3n2)c(C(F)(F)F)c1 [Compound I55, {2-[2,4-bis(trifluoromethyl)phenyl](4-quinolyl)}[2-(4-piperidylmethyl)phenyl]amine]	–
801 to 5000	Fc1ccc(-c2cc(NCCCN3CCCCC3)c3ccccc3n2)c(F)c1F [Compound I115]	–
801 to 5000	Clc1cccc(-c2cc(Nc3ccccc3CC3CCNCC3)c3ccccc3n2)c1 [Compound I21, [2-(3-chlorophenyl)(4-quinolyl)][2-(4-piperidylmethyl)phenyl]amine]	–
> 5000	FC(F)(F)c1cc(-c2cc(Nc3cccc(CC4CCN(Cc5ccccc5)CC4)c3)c3ccccc3n2)cc(C(F)(F)F)c1 [Compound I50, {2-[3,5-bis(trifluoromethyl)phenyl](4-quinolyl)}(3-{[1-benzyl(4-piperidyl)]methyl}phenyl)amine]	–
801 to 5000	[2-(3,5-dichlorophenyl)(4-quinolyl)](3-piperidylpropyl)amine [Compound I170]	–
801 to 5000	c1ccc2c(NCCCN3CCCCC3)cc(-c3ccoc3)nc2c1 [Compound G14, (2-Furan-3-yl-quinolin-4-yl)-(3-piperidin-1-yl-propyl)-amine]	–
801 to 5000	COc1ccc(-c2cc(NCCCN3CCCCC3)c3ccccc3n2)cn1 [Compound I156]	–
801 to 5000	Cc1cccc(-c2cc(NCCCN3CCCCC3)c3ccccc3n2)c1 [Compound G9, (3-Piperidin-1-yl-propyl)-(2-m-tolyl-quinolin-4-yl)-amine]	–
801 to 5000	c1coc(-c2cc(NCCCN3CCCCC3)c3ccccc3n2)c1 [Compound G12, (2-Furan-2-yl-quinolin-4-yl)-(3-piperidin-1-yl-propyl)-amine]	–
200 to 800	NCCCNC(=O)c1ccc(-c2cc(NCCCN3CCCCC3)c3ccccc3n2)cc1 [Compound I195]	–
200 to 800	O=C(NCCCN1CCCCC1)c1ccc(-c2cc(NCCCN3CCCCC3)c3ccccc3n2)cc1 [Compound I198]	–
801 to 5000	COc1ccc(-c2cc(Nc3cccc(C)n3)c3ccccc3n2)cc1 [Compound G67, [2-(4-methoxyphenyl)(4-quinolyl)](6-methyl(2-pyridyl))amine]	–
801 to 5000	COc1ccc(-c2cc(Nc3ccc(CN4CCOCC4)cc3)c3ccccc3n2)cc1 [Compound G52, [2-(4-methoxyphenyl)(4-quinolyl)][4-(morpholin-4-ylmethyl)phenyl]amine]	–
801 to 5000	CN(C)Cc1ccc(Nc2cc(-c3cccc(Cl)c3)nc3ccccc23)cc1 [Compound I16, [(4-{[2-(3-chlorophenyl)(4-quinolyl)]amino}phenyl)methyl]dimethylamine]	–
801 to 5000	FC(F)(F)COc1ccccc1-c1cc(NCCCN2CCCCC2)c2ccccc2n1 [Compound I131]	–
801 to 5000	(3-piperidylpropyl)[2-(3,4,5-trifluorophenyl)(4-quinolyl)]amine [Compound I127]	–
801 to 5000	COc1ccc(-c2cc(NCCc3ccccn3)c3ccccc3n2)cc1 [Compound I199, [2-(4-methoxyphenyl)(4-quinolyl)](2-(2-pyridyl)ethyl)amine]	–
